Test results from PubChem BioAssay (NCI).
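GI50 = concentration required for 50% inhibition of growth. At the TGI there is no net growth.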

Columns and labels:
Test in all cases: inhibition of tumour cell growth, NCI panel, 384-well format
UACC-257 melanoma = system: UACC-257 melanoma
SF-268 CNS = system: SF-268 CNS
HOP-62 NSCLC = system: HOP-62 NSCLC
NCI-H522 lung = system: NCI-H522 lung
CAKI-1 renal = system: CAKI-1 renal
A498 renal = system: A498 renal
MALME-3M melanoma = system: MALME-3M melanoma
NCI/ADR-RES ovarian = system: NCI/ADR-RES ovarian
SK-MEL-5 melanoma = system: SK-MEL-5 melanoma
COLO 205 colon = system: COLO 205 colon
ACHN renal = system: ACHN renal
U251 glioblastoma = system: U251 glioblastoma
HT29 colon = system: HT29 colon

Question: With `Cn1ncc2cc(-c3cnc(N)c(Cl)c3N3CCC4(CCNC4=O)CC3)ccc21` as the compound, how does the GI50 (UACC-257 melanoma) read?
Answer: Its GI50 is 15.4 µM.

Question: And the TGI (UACC-257 melanoma)?
Answer: Its TGI is 31.8 µM.

Question: And the GI50 (SF-268 CNS)?
Answer: The GI50 was 41.9 µM.

Question: And the TGI (SF-268 CNS)?
Answer: Its TGI is over 100 µM.

Question: What about the GI50 (HOP-62 NSCLC) of the same compound?
Answer: The GI50 was 29.2 µM.

Question: And the TGI (HOP-62 NSCLC)?
Answer: Its TGI is over 90.6 µM.

Question: What about the GI50 (NCI-H522 lung) of the same compound?
Answer: The GI50 was 20.3 µM.

Question: And the TGI (NCI-H522 lung)?
Answer: Its TGI is over 100 µM.

Question: What about the GI50 (CAKI-1 renal) of the same compound?
Answer: Its GI50 is 20.6 µM.

Question: And the TGI (CAKI-1 renal)?
Answer: The TGI was over 95.7 µM.

Question: And the GI50 (A498 renal)?
Answer: Its GI50 is 10.2 µM.

Question: And the TGI (A498 renal)?
Answer: Its TGI is over 100 µM.

Question: And the GI50 (MALME-3M melanoma)?
Answer: Its GI50 is 40.9 µM.

Question: What about the TGI (MALME-3M melanoma) of the same compound?
Answer: The TGI was over 85 µM.

Question: What about the GI50 (NCI/ADR-RES ovarian) of the same compound?
Answer: The GI50 was 31.4 µM.

Question: What about the TGI (NCI/ADR-RES ovarian) of the same compound?
Answer: The TGI was over 83.3 µM.

Question: And the GI50 (SK-MEL-5 melanoma)?
Answer: The GI50 was 21.2 µM.

Question: And the TGI (SK-MEL-5 melanoma)?
Answer: The TGI was 48.7 µM.

Question: And the GI50 (COLO 205 colon)?
Answer: The GI50 was 48.3 µM.

Question: What about the TGI (COLO 205 colon) of the same compound?
Answer: Its TGI is over 100 µM.

Question: And the GI50 (ACHN renal)?
Answer: The GI50 was 14.1 µM.

Question: And the TGI (ACHN renal)?
Answer: The TGI was over 100 µM.

Question: What about the GI50 (U251 glioblastoma) of the same compound?
Answer: Its GI50 is 21.3 µM.

Question: What about the TGI (U251 glioblastoma) of the same compound?
Answer: The TGI was over 100 µM.

Question: What about the GI50 (HT29 colon) of the same compound?
Answer: Its GI50 is 16.6 µM.

Question: And the TGI (HT29 colon)?
Answer: Its TGI is over 59.9 µM.
